Results taken from patent US6340694B1, “Diarylbenzopyran derivatives as cyclooxygenase-2 inhibitors” (Pacific Corporation, priority 1998, dated 2002).

Tests used:
[1] = target: T1, COX-2 (Mus musculus, UniProt Q05769); assay: Evaluation of COX-2's inhibition efficacy (PGE2 radioimmuno assay, LPS-induced, aspirin-pretreated peritoneal macrophages); assay type: cell-based, C57BL/6 mouse; settings: for inhibition at 0.1 µg/mL: 0.1 μg/ml; for inhibition at 1 µg/mL: 1 μg/ml; for inhibition at 10 µg/mL: 10 μg/ml
T1 construct: endogenous in cells; host or cells: peritoneal macrophages of C57BL/6 mouse, aspirin-pretreated, LPS-induced
T1 sequence (Q05769 18-604): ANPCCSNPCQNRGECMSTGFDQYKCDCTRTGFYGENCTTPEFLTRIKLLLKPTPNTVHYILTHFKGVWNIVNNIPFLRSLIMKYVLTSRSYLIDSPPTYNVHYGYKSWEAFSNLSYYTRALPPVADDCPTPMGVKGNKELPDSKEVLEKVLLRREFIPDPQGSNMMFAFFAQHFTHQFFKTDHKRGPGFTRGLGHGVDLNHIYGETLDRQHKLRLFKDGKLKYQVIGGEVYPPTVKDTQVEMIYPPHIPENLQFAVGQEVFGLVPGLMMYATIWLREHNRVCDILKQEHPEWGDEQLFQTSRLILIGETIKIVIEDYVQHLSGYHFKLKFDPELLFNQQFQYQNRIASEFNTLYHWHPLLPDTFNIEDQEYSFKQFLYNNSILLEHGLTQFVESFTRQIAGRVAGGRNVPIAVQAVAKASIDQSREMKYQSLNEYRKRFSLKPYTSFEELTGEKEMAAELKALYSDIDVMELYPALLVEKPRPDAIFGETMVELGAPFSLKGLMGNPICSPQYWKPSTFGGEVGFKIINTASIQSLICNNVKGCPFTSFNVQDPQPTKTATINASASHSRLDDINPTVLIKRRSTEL
How it was run: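 C57BL/6 mouse peritoneal macrophages, adhered 2 h at 37 °C, were LPS-stimulated to induce COX-2. Cells were then treated 10 min with compound, followed by 10 min with 10 μM arachidonic acid (final). PGE2 in the supernatant was quantified by radioimmunoassay.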

[2] = test system: edema in mouse's foot induced by carrageenan; assay: Depressant action on edema in mouse's foot induced by carrageenan; assay type: in vivo, Male Sprague-Dawley rat; settings: po, 3 h, read-out: depressant rate of edema rate induced by carrageenan (oral administration), % depression; for inhibition in vivo at 50 mg/kg: 50 mg/kg p.o.
Experimental: (§1) Regarding the compounds in some of the above Examples and indomethacin, depressant action on edema in mouse's ear and depressant action on edema in mouse's foot being induced by carrageenan are being measured by the following 2 methods. And the results of the depressant action on edema in mouse's ear and depressant action on edema in mouse's foot being induced by carrageenan are shown in Table 5.
2. Measurement of Depressant Action on Edama in Mouse's Foot Induced by Carrageenan
At 1 hour after oral administering to Male-Sprague-Dawley-white mouse, weighing 150˜200 g, with a suspended solution of appropriate amount of sample in 0.5% of carboxymethyl cellulose and 0.2% of TWEN solution, edema on the right foot of mouse was induced by injecting 0.1 ml(1%) of carrageenan-saline solution. Right after the inducement of edema by carrageenan and 3 hours later, the edema rate was estimated by measuring white mouse's foot volume with Displacement Plethysmometer(Ugo Basile, Italy). Carrageenan injection Drug was administered 1 hour before the carrageenan injection. Depressant rate of edema is produced by the following equation 1.
% Depressant rate of edema=(1 ? Vtreated group/ ? Vcontrol group)×100 ? V: change of foot volume [Equation 1]

[3] = target: T2, COX-1 (Mus musculus, UniProt P22437); assay: Evaluation of COX-1's inhibition efficacy (macrophages without aspirin and LPS pre-treatment); assay type: cell-based, C57BL/6 mouse; settings: 10 μg/ml
T2 construct: there is no pre-treatment of aspirin and LPS in the adhesion of macrophage; endogenous in cells; host or cells: peritoneal macrophages of C57BL/6 mouse, without aspirin and LPS pre-treatment
T2 sequence (P22437 27-602): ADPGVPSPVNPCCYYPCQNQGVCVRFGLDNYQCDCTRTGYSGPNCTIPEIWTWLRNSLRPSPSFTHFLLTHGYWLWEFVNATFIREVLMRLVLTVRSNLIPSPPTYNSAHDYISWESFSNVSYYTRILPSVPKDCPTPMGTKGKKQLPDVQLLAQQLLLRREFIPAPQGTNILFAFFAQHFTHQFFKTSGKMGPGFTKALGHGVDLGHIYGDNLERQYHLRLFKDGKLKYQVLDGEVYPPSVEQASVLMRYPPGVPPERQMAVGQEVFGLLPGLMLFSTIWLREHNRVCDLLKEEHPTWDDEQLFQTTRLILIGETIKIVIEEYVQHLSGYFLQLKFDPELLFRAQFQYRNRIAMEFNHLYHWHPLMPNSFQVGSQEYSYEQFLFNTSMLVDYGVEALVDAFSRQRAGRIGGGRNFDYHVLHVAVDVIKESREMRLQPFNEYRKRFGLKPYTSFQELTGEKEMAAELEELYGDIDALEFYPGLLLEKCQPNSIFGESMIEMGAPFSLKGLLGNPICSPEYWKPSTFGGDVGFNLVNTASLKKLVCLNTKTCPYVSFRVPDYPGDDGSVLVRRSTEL
How it was run: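 C57BL/6 mouse peritoneal macrophages (1×10^6 cells/mL) were adhered for 2 h at 37° C without aspirin or LPS pretreatment. Compound was given for 10 min at 37° C, then arachidonic acid (10 μM final) for 10 min. Supernatant PGE2 was measured by radioimmunoassay, with 100% activity set as PGE2 with versus without arachidonic acid.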

[4] = test system: edema in mouse's ear; assay: Depressant action on edema in mouse's ear (TPA-induced, myeloperoxidase); assay type: in vivo, ICR mouse; settings: topical on ear, TPA 25 μg, 5 hours
Experimental: as §1
1. Measurement of Depressant Action on Edama in Mouse's Ear
At 30 minutes after coating the left ear of ICR mouse, weighing 20 g, with a solution of appropriate amount of sample in 20 μl of mixed solvent DMSO:acetone(1:9), 25 μg of TPA(tetradecanoylphorbol acetate) was coated on both ears. The determination of depressant action on edama was made in 5 hours later by the number of neutral granulocyte gathering in the ear after inducing TPA inflammation. The number of neutral granulocyte was estimated by measuring the activation of myeloperoxidase.

`CS(=O)(=O)c1ccc(-c2oc3ccccc3c(=O)c2-c2ccc(F)cc2)cc1` [Example 1, 3-(4-Fluorophenyl)-2-(4-(methylsulfonyl)phenyl)-4H-1-benzo-pyran-4-one] showed an inhibition at 0.1 µg/mL [1] of 94%, an inhibition at 1 µg/mL [1] of 100% and an inhibition in vivo at 50 mg/kg [2] of 43%. The inhibition at 10 µg/mL [3] was less than 5% and the “depressant rate of ear edema, ED50” value [4] was 0.4 mg/ear, ED50.

With `Cc1ccc(-c2c(-c3ccc(S(C)(=O)=O)cc3)oc3ccccc3c2=O)cc1` [Example 3, 3-(4-Methylphenyl)-2-(4-(methylsulfonyl)phenyl)-4H-1-benzopyran-4-one] the melting point was 225 °C, the inhibition at 0.1 µg/mL [1] was 13% and the inhibition at 1 µg/mL [1] was 61%. The inhibition at 10 µg/mL [1] was 72%, the inhibition in vivo at 50 mg/kg [2] was 52% and the “depressant rate of ear edema, ED50” value [4] was 1.2 mg/ear, ED50.

`CS(=O)(=O)c1ccc(-c2oc3ccccc3c(=S)c2-c2ccc(F)cc2)cc1` [Example 36, 3-(4-Fluorophenyl)-2-(4-(methylsulfonyl)phenyl)-4H-1-benzopyran-4-thione] showed an inhibition at 0.1 µg/mL [1] of 56%, an inhibition at 1 µg/mL [1] of 80% and an inhibition at 10 µg/mL [1] of 100%. For the same compound, the inhibition in vivo at 30 mg/kg ([2]; 30 mg/kg p.o.) was 20%, the inhibition at 10 µg/mL [3] was less than 5% and the “depressant rate of ear edema, ED50” value [4] was 1.0 mg/ear, ED50.
